These results are taken from US7109329B2, “Neurologically active compounds and compounds with multiple activities” (priority 1988, dated 2006).

Each structure is given as a SMILES string.

The nature of series [1]: Intravenous anesthesia of a 70 kg mammal. To be noted: 70 kg mammal, 20 mg aminophylline intravenous over five minutes. The series is classed as in vivo. The procedure: Thereafter, an intravenous injection containing 20 mg of aminophylline is administered over a period of five minutes. The large mammal is fully awakened within about 20 minutes, appearing alert and refreshed.
The period of time required to fully reverse the anesthesia can be increased or decreased by proportionally changing the amount of the antagonist. After metabolism of guanabenz, the mammal will spontaneously awaken, within about three to six hours after the I.V. drip is discontinued.

Series [2] can be described thus: Electrical tail stimulation, vocalization threshold (anesthesia) in rats. It is filed as in vivo, rat. The settings on record: guanabenz-anesthetized rats, 40 mgs. aminophylline. On the procedure:
A fifth rat was treated with merely an equal amount of the dextrose solution without guanabenz acetate. The rats were subjected to an electrical tail stimulation, by electrodes attached to their tails, to determine the point of positive (threshold) vocalization.
The normal vocalization threshold, and the point at which the control rat vocalized was approximately 7 volts. […] To bring the rats out of anesthesia, the rats were then injected with 40 mgs. of aminophylline, also in 1 ml of a 5% aqueous dextrose solution. […] The normal threshold for vocalization was reestablished, as there was no vocalization at 6 volts following recovery from anesthesia.
The rats were maintained under anaesthesia for a period of 50 minutes before injection of the aminophylline.

Series [3] in a line: Reversal of guanabenz-induced anesthesia and hypothermia by antagonists. It is filed as in vivo, rat.
The conditions of series [4]: for mean core temperature one hour after injection: room temperature 19.4° C., guanabenz acetate 12 mg/kg, pentabarbital 25 mg/kg, ketamine 80 mg/kg; for mean core temperature one hour after injection / core temperature twenty minutes after injection: I.P.; for core temperature twenty minutes after injection: room temperature 21° C., G 12 mg/kg, D 6 mg/kg or combination; for core temperature allowed to fall to: 4 mg intraperitoneally, ambient 21° C., before transfer to 42° C. room (guanabenz: after about 15 minutes). On the procedure:
Room temperature was 21.5° C.
The core temperatures of the rats were allowed to fall to approximately 30° C., after about 15 minutes. At that time, the rats were placed in a temperature controlled room maintained at 42° C., together with 2 control rats treated only with the dextrose solution.
The core temperatures of the rats were allowed to fall to approximately 30° C. At that time, the rats were placed in a temperature controlled room maintained at 42° C., together with two control rats treated only with the dextrose solution.

Series [5] in a line: Anesthesia in rats judged by reflexes and wakefulness. The settings on record: for appearance of ears and digits of anesthetized animals / survival at the given doses / reflexes tested (as in Examples 48–53) / anesthesia judged by reflexes (patellar, urethro-anal, startle, corneal etc.) after 30 minutes: I.P.; for appearance of ears and digits of anesthetized animals / reflexes tested (as in Examples 48–53): guanabenz acetate 12 mg/kg; for appearance of ears and digits of anesthetized animals / survival at the given doses / reflexes tested (as in Examples 48–53): pentabarbital 25 mg/kg, ketamine 80 mg/kg; for reflexes tested (as in Examples 48–53): room temperature 19.4° C.; for anesthesia judged by reflexes (patellar, urethro-anal, startle, corneal etc.) after 30 minutes: room temperature 21° C., G 12 mg/kg, D 6 mg/kg or combination.

Series [6] in a line: Formation of scar tissue at the trauma site. The series is classed as in vivo. An excerpt:
It is believed that these mixed agonists interfere with triple helix formation in the synthesis of collagen protein, thus preventing or reducing the formation of hard scar tissue at the trauma site.
The purpose of liquid nitrogen is to reduce the structural integrity of the collagen laden, glial scar tissue, by freezing and defrosting. Collagenase then initiates a debridgement of the scar without attacking the nervous and osseous tissue. If required, streptokinase, or alteplase, both plasminogen activators can also be used to bring about a complete debridgement. In addition to 3-amino-propionitrile (a latherogen), 5-fluorodeoxyuridine and dehydroproline can be used to arrest further glial and fibroblastic invasion of the scar region, respectively.

Series [7] can be described thus: Blood pressure after administration, cat. The series is classed as in vivo.
Series [8] in a line: Spasticity in previously untreated spinal cord transected rats (Working Example 2). To be noted: 4.0 mg/kg BID intraperitoneally for 7 days. The series is classed as in vivo, rat. An excerpt:
It was noted that some of the untreated rats in Comparative Example A developed severe spasticity three weeks after transection.

Series [9] can be described thus: Spinal cord transection in rats: recovery of hind limb function and reflexes under treatment. The series is classed as in vivo, rat. The procedure: The spinal cord of a group of rats was completely transected. After surgery, the rats were treated with guanabenz.
The rats presented with a condition of bloody eyes and nose for a period of 2 to 5 days after the transection. During the first two-weeks, proper plantar placement, weight bearing on the hind limbs and/or coordinated walking was not present.
In a further group of six rats the spinal cord was transected in accordance with the above Comparative Examples. After surgery and cleaning and mechanical treatment of the wounds in the same fashion, an intraperitoneal injection of 7-(guanidino-acetyl-theophylline (“C”) was administered at a dose of 5.0 mg/kg 24 hours post surgery. Within a 7 to 9 day period, the rats engaged in walking movements of the hind limbs coordinated with those of the front limbs and the hind limbs, including proper plantar placement and full weight bearing on the hind limbs.
Within 36 hours after the spinal cord transection, i.e., only 12 hours after initial administration of Compound C, the initial bloody eyes and nose condition had abated. […] Further the animals were alert and continued to eat in substantially normal quantities.
Starting 24 hours post-transection, immediately after each intraperitoneal administration of Compound C, reflexes such as the tail-flick and cross-extension would return, within 12 minutes post injection. […] Within 8 to 11 days the response became sustained, and was accompanied by long-term therapeutic restoration of coordinated movements, plantar placements and weight-bearing by the hind limbs.

Series [10] in a line: Blood pressure after administration, sheep. The series is classed as in vivo.
A short description of series [11]: Activities and properties of the compounds (Table III codes listed as Specific Properties in Table IV). To be noted: codes of Table III; higher levels of activity. An excerpt:
Certain of the compounds produce a profound hypothermia, but without anesthetizing. […] Table III, following, sets forth a list of the other properties of these guanidino compounds, which arise from their alpha-adrenergic agonist activity, combined with any inherent activity of the reactants chosen to achieve the final compound.
Except for items numbered 22 and 24–28 in Table III, substantially all of the guanidino compounds of this invention, as a result of their structure-activity relationship, are potent with respect to all of the above activities. However, as would be expected, various compounds have different, higher levels of, activities and properties which are listed as “Specific Properties”, with the Compounds numbered, in Table IV, below, according to the numbers in Tables I and II.

The nature of series [12]: Core temperature and behaviour of treated rats in a room at 42° C. The series is classed as in vivo, rat. To be noted: 4 mg intraperitoneally; for core temperature in the 42° C. room: placed at core temperature about 30° C.
[13] abbreviates: guanabenz-treated rats (4 mg I.P.), Yohimbine 10 mg I.P.
Setting [14] is: 5.0 mg/kg intraperitoneal 24 hours post surgery.
Setting [15] is: 4 mg I.P., room temperature 21.5° C.

As to `Cn1c(=O)c2[nH]cnc2n(C)c1=O` [aminophylline], the “time until fully awakened from guanabenz anesthesia” value in series [1] was no more than 20 min. The “voltage at which vocalization was present” value in series [2] (by 8 minutes after injection) amounted to 7 volts. Moreover, the “voltage at which vocalization returned” value in [2] (within 6 minutes after injection) stood at 12 volts. Further, in series [3] (setting [13]), the “effect on guanabenz-induced anesthesia” value is listed as “caused them to awaken” and the “effect on guanabenz-induced hypothermia (body temperature)” value is “practically no effect on body temperature”. In addition, the “effect of injection on melazine-treated rats” value in series [3] (three melazine-treated rats) is recorded as “no discernible effect”.
With `CNC1(c2ccccc2Cl)CCCCC1=O` (stereo not shown) [ketamine], the “mean core temperature one hour after injection” value (shortened to “mean core temperature one hour”) in [4] was 34.5 °C. For the same compound, in series [5], the “appearance of ears and digits of anesthetized animals” value was “semi-cyanotic”; the “survival at the given doses” value was “did not survive”; the “reflexes tested (as in Examples 48–53)” value is given as “disappeared”.
On to `Clc1cccc(Cl)c1N=C1NCCN1` [clonidine], for which the “effect on formation of the scar” value in series [6] is “interfere with formation of the scar”.
Regarding `CN1C(=O)CN=C(c2ccccc2)c2cc(Cl)ccc21` [diazepam], in series [4], the “core temperature twenty minutes after injection” value was “no change”. The “anesthesia judged by reflexes (patellar, urethro-anal, startle, corneal etc.) after 30 minutes” value in series [5] was “all such reflexes were present”.
On to `Cn1c(=O)c2c(ncn2CC(=O)NC(=N)N)n(C)c1=O` [C, Guanidino-7-Acetyltheophylline], for which, in series [7], the “blood pressure immediately after administration” value was “slight increase” and the “time until blood pressure returned to basal level” value was no more than 10 min. Moreover, the “time until marked decrease in spasticity” value in series [8] (three spastic control rats three weeks after transection) is listed as no more than 4 days. For the same compound, in series [8] (three spastic control rats), the “time until complete elimination of spasticity” value was 7 days. Further, in series [9] (setting [14]), the “time after initial administration until bloody eyes and nose condition had abated” value turned out to be 12 h; the “time after spinal cord transection until bloody eyes and nose condition had abated” value was no more than 36 h. For the same compound, the “time post injection until return of reflexes (tail-flick, cross-extension)” value in [9] (after each intraperitoneal administration, starting 24 hours post-transection) was no more than 12 min. In [9] (six spinal transected rats, 5.0 mg/kg intraperitoneal from 24 hours post surgery), the “period until walking movements of the hind limbs coordinated with the front limbs, proper plantar placement and full weight bearing” value fell in the range of 7 to 9 days. For the same compound, in series [9] (spinal transected rats, 5.0 mg/kg intraperitoneal), the “signs of sedation or lethargy during the course of treatment” value is “did not exhibit any signs of sedation or lethargy”. Further, the “time until the response became sustained with long-term restoration of coordinated movements” value in series [9] (spinal transected rats, intraperitoneal) is listed as 8 to 11 days. For the same compound, in [10], the “blood pressure immediately after administration” value is listed as “slight increase” and the “time until blood pressure returned to basal level” value was no more than 10 min.
Regarding `Cn1c(=O)c2c(ncn2CC(=O)NCc2nc3ccccc3[nH]2)n(C)c1=O` [Compound 96, 2-(Theophylline-7-acetamido)-2-methylbenzimidazole], the “Specific Properties” value in [11] is reported as 3, adrenergic antagonist, 12. The “antagonism of both the hypothermic and anesthetic effects of guanidino compounds” value in series [3] (rat, in vivo) is “reverse both the hypothermic and anesthetic effects”.
Regarding `CCCC(C)C1(CC)C(=O)NC(=O)NC1=O` (stereo not shown) [pentabarbital], the “mean core temperature one hour” value in series [4] came out at 29.3 °C. Moreover, in series [5], the “appearance of ears and digits of anesthetized animals” value is “semi-cyanotic”; the “survival at the given doses” value is reported as “did not survive”; the “reflexes tested (as in Examples 48–53)” value is recorded as “disappeared”.
Regarding `COc1cc(C=NNc2ncc[nH]2)cc(OC)c1OC` [Compound 13, Melazine], in [4] (setting [15]), the mean intraperitoneal temperature worked out at 30.2 °C; the “temperatures of the liver and the kidneys” value was roughly 32.7 °C. Besides, in series [4] (eight rats each, 4 mg I.P. in 5% dextrose, room temperature 21.5° C., normal value 36.5° C.), the “core temperature (colonic measurement) after drop” value came to 21.5 °C. For the same compound, the “anesthetic state of the treated rats” value in [5] (setting [15]) is recorded as “remained awake”.
On to `N=C(N)NN` [Aminoguanidine], for which the “effect on formation of the scar” value in series [6] is recorded as “interfere with formation of the scar”.
Regarding `Clc1cccc(Cl)c1C=Nc1nc(N=Cc2c(Cl)cccc2Cl)nc(N=Cc2c(Cl)cccc2Cl)n1` [Compound 18, 2,4,6-Tris (2,6-dichlorobenzylideneamino)-1,3,5-s-Triazine], the “core temperature allowed to fall to” value in series [4] was “approximately 30 °C”. Moreover, in series [12], the “state of treated rats in the 42° C. room” value is “remained calm, but active” and the “core temperature in the 42° C. room” value stood at 30 °C.
For `N=C(N)N/N=C/c1c(Cl)cccc1Cl` [guanabenz acetate], in series [4], the “core temperature allowed to fall to” value is “approximately 30 °C”, the “mean core temperature one hour” value turned out to be 24.3 °C and the “core temperature twenty minutes after injection” value was “about 31 °C”. Moreover, in series [5], the “reflexes tested (as in Examples 48–53)” value is recorded as “disappeared” and the “anesthesia judged by reflexes (patellar, urethro-anal, startle, corneal etc.) after 30 minutes” value is given as “profound anesthesia”. Besides, in series [12], the “state of treated rats in the 42° C. room” value is “remained under anesthesia” and the “core temperature in the 42° C. room” value was 30 °C.
